Reference: patent US20130190407A1, “CALCIUM RECEPTOR-ACTIVE MOLECULES” (NPS Pharmaceuticals, Inc., priority 1991, published 2013)
pEC50: −log10 of the molar value. Where two headings read alike, the source gives them in different places.

How the values were obtained:
Sprague-Dawley rats = experiment: Serum/plasma Ca2+, PTH and calcitonin in rats in vivo; parameters: species or system rat; conditions: for ED50: Rattus norvegicus, po, normal adult rats
Method: Compounds shown to activate the bovine parathyroid cell calcium receptor in vitro were tested for hypocalcemic activity in vivo. Male Sprague-Dawley rats (200 g) were maintained on a low calcium diet for one week prior to receiving test substance or vehicle as control. Blood was collected from the tail vein three hours after the intra-peritoneal administration of NPS 467. […] Serum total calcium, albumin and phosphate were measured by techniques well known in the art.
Rats (male, Sprague-Dawley, 250-300 g) were fed standard rat chow and fasted overnight prior to the experiment. NPS R-467 was suspended in corn oil, and administered as a single oral dose through a gavage needle. Three hours later a sample of blood was taken from the tail vein and assessed for ionized Ca^2+ levels.

[1] = tested on: parathyroidectomized rats; experiment: Serum ionized Ca2+ in parathyroidectomized animals; assay type: in vivo, rat
Excerpt: To determine the primary target tissue upon which NPS R-467 acts to cause a hypocalcemic response, the parathyroid glands in rats were surgically removed. Animals receiving a total parathyroidectomy become hypocalcemic and are largely dependent upon dietary calcium to maintain serum Ca^2+ homeostasis.

C-cell calcium receptor = target: T1, C-cell calcium receptor (Rattus norvegicus, UniProt P48442); experiment: [Ca2+]i in rat medullary thyroid carcinoma C-cell line (44-2 cells); assay type: cell-based; conditions: 1 mM extracellular Ca2+, read-out: EC50 for increase in [Ca2+]i
T1 construct: cultured cell lines expressing the C-cell phenotype (e.g., rat medullary thyroid carcinoma cells; rMTC 6-23 cells); host or cells: rMTC 6-23 rat medullary thyroid carcinoma cells
T1 sequence (P48442 20-1079): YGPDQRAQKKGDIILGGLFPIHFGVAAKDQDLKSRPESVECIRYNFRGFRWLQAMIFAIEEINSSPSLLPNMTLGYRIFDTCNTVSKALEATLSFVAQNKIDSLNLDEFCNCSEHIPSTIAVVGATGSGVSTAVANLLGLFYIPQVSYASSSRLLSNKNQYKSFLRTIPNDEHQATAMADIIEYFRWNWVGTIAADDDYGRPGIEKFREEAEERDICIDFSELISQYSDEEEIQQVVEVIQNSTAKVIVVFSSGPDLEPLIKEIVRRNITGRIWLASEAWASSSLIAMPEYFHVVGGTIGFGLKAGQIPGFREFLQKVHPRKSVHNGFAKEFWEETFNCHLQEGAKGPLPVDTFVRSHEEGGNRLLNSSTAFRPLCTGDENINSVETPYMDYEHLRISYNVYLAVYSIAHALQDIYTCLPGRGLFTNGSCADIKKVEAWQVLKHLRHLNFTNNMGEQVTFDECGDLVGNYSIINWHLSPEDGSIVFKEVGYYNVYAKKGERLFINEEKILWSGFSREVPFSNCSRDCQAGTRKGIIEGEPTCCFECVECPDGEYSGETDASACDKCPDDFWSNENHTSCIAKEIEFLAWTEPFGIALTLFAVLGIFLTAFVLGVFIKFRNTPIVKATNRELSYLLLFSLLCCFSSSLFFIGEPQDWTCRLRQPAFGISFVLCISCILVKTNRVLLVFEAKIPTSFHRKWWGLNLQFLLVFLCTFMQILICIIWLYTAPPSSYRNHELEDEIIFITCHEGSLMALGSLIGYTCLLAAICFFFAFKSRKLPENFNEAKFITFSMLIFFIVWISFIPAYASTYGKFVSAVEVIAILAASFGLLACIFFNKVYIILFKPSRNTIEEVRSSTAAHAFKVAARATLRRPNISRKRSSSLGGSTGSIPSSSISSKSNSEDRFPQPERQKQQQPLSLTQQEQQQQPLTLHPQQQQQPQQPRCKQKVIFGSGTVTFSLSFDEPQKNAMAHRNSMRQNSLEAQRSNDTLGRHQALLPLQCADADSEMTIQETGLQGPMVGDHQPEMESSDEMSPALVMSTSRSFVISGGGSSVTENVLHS
Excerpt: C-cells appear to express a calcium receptor that is structurally similar to that present on parathyroid cells (see Example 31). […] Thus, compounds in this structural series appear to activate the C-cell calcium receptor.

[2] = target: T2, parathyroid cell calcium receptor (Bos taurus, UniProt P35384); experiment: Mobilization of intracellular Ca2+ ([Ca2+]i, fura-2) in bovine parathyroid cells; assay type: cell-based; parameters: Parathyroid glands were obtained from freshly slaughtered calves (12-15 weeks old); endogenous in cells; host or cells: dissociated primary bovine (calf) parathyroid cells; conditions: EC50 for mobilization of intracellular Ca2+; bovine parathyroid cells
T2 sequence (P35384 20-1085): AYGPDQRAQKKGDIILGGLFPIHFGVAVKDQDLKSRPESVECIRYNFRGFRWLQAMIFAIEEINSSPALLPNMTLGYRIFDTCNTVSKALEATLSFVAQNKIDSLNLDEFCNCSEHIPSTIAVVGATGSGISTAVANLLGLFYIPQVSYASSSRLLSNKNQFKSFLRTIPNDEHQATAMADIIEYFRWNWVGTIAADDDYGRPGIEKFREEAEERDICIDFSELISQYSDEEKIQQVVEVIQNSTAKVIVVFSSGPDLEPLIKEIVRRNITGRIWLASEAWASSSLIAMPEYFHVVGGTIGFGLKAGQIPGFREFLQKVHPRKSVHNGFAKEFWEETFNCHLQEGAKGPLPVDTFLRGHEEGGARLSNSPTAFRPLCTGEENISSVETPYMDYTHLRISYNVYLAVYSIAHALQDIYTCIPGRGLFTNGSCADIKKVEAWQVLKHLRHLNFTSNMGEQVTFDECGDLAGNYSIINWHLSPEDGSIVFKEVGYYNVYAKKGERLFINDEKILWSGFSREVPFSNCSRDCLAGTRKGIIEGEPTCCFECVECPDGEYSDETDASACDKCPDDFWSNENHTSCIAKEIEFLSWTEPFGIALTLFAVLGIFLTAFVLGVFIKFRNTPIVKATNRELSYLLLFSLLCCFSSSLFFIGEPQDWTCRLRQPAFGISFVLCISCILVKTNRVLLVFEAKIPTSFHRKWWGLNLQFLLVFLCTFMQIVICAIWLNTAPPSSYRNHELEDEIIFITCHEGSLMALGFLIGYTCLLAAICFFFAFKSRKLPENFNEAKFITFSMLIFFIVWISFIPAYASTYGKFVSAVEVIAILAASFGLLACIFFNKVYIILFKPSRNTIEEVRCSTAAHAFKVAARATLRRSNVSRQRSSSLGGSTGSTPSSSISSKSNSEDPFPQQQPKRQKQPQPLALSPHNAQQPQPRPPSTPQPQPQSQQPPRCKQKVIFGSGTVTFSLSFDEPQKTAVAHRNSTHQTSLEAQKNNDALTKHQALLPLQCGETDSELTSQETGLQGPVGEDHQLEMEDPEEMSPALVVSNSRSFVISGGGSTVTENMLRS
Method: This section describes procedures used to obtain and treat parathyroid cells from calves and humans. […] Human parathyroid glands, were obtained from patients undergoing surgical removal of parathyroid tissue for primary or uremic hyperparathyroidism (uremic HPT), and were treated similarly to bovine tissue.
Glands were trimmed of excess fat and connective tissue and then minced with fine scissors into cubes approximately 2-3 mm on a side. Dissociated parathyroid cells were prepared by collagenase digestion and then purified by centrifugation in Percoll buffer. The resultant parathyroid cell preparation was essentially devoid of red blood cells, adipocytes, and capillary tissue as assessed by phase contrast microscopy and Sudan black B staining. Dissociated and purified parathyroid cells were present as small clusters containing 5 to 20 cells.
The cells were then pelleted, resuspended in the same buffer, but lacking the ester, and incubated a further 15 minutes at 37° C. The cells were subsequently washed twice with PCB containing 0.5 mM CaCl2 and 0.5% BSA and maintained at room temperature (about 20° C.) Immediately before use, the cells were diluted five-fold with prewarmed 0.5 mM CaCl2-PCB to obtain a final BSA concentration of 0.1%. The concentration of cells in the cuvette used for fluorescence recording was 1−2×10^6/ml.
The fluorescence of indicator-loaded cells was measured at 37° C. in a spectrofluorimeter (Biomedical Instrumentation Group, University of Pennsylvania, Philadelphia, Pa.) equipped with a thermostated cuvette holder and magnetic stirrer using excitation and emission wavelengths of 340 and 510 nm, respectively. […] Leakage of dye is dependent on temperature and most occurs within the first 2 minutes after warming the cells in the cuvette. Dye leakage increases only very slowly thereafter. To correct the calibration for dye leakage, cells were placed in the cuvette and stirred at 37° C. for 2-3 minutes. The cell suspension was then removed, the cells pelleted, and the supernatant returned to a clean cuvette. […] This estimate was subtracted from the apparent Fmin.

| SMILES | potency in lowering serum Ca2+ in vivo (Sprague-Dawley rats; 5 mg/kg body weight) | serum ionized Ca2+ (Sprague-Dawley rats; single oral dose in corn oil, three hours) | change in serum ionized Ca2+ ([1]; 10 mg/kg i.p., over 6 hours) | pEC50 (C-cell calcium receptor) | pEC50 [2] | ED50 (Sprague-Dawley rats; read-out: ED50 for depression of plasma Ca2+) [mg/kg] | ED50 (Sprague-Dawley rats; read-out: ED50 for depression of plasma PTH) [mg/kg] | ED50 (Sprague-Dawley rats; read-out: ED50 for stimulation of calcitonin) [mg/kg] | hypocalcemic response ([1]; oral administration) |
| --- | --- | --- | --- | --- | --- | --- | --- | --- | --- |
| COc1cccc([C@@H](C)NCCCc2ccccc2)c1 (single isomer, unassigned) [NPS R-467] | more potent than the S-isomer in lowering serum Ca^2+ in vivo | dose-dependent reduction in serum levels of ionized Ca^2+ | did not cause any change in serum ionized Ca^2+ levels | 5.72 | > 5.30 | – | – | – | – |
| COc1cccc([C@@H](C)NCCCc2ccccc2Cl)c1 [NPS R-568, (R)-(+)-N-[3-(2-chlorophenyl)propyl]-α-methyl-3-methoxybenzylamine] | – | – | – | 5.66 | > 5.30 | 8 | 1 | 40 | fails to elicit a hypocalcemic response |
